{"source": "patent US12343326B2", "about": "“Psychoactive medicines and their use for treating psychiatric and neurological conditions and disorders” (Transcend Therapeutics, Inc., priority 2021, dated 2025)", "key": {"[1]": {"test_system": "patients with a primary diagnosis of PTSD", "assay": "Case series with long-term follow-up (Example 5): CGI-I, durability, safety", "assay_type": "in vivo, human", "description": "The patients were not given structured psychotherapy in conjunction with methylone treatment, which differs from recent studies of MDMA that emphasize the importance of a manualized psychedelic-assisted psychotherapy model.\nNo protected health information was disclosed, and no consent was obtained from patients for use of their archival data. Case narratives were systematically compiled from data collected as part of routine clinical work. Diagnoses were confirmed by an experienced clinician using semi-structured interviews. Baseline symptom severity was evaluated using the Clinical Global Impressions Scale-Severity (CGI-S). Symptom improvement was evaluated using the Clinical Global Impressions Scale-Improvement (CGI-I) following dosing. […] Because these case narratives were examined retrospectively from routine clinical care records, and not gathered prospectively in a research study, more specific validated rating scales for assessing PTSD symptoms were not available. Additionally, follow-up varied, with the length of follow-up ranging from one week (Case 2) to 15 years (Case 16).\nDosing summary: Methylone was administered orally. Other medications were not changed during methylone treatment. […] In several cases, treatment was continued, and, in some cases, the dose was further escalated in later sessions (see Table 5). Booster doses were included for 19 patients in one or more of the sessions. Starting doses were between 100 and 270 mg, and these as well as booster doses were selected based on clinical judgement."}, "[2]": {"settings": "cited from earlier work"}, "5HT2C receptor": {"target": "T1, 5HT2C receptor (Homo sapiens, UniProt P28335)", "T1 construct": "beta-galactosidase enzyme fragment (PathHunter complementation tag); host or cells: PathHunter cell lines", "T1 sequence (P28335 33-458)": "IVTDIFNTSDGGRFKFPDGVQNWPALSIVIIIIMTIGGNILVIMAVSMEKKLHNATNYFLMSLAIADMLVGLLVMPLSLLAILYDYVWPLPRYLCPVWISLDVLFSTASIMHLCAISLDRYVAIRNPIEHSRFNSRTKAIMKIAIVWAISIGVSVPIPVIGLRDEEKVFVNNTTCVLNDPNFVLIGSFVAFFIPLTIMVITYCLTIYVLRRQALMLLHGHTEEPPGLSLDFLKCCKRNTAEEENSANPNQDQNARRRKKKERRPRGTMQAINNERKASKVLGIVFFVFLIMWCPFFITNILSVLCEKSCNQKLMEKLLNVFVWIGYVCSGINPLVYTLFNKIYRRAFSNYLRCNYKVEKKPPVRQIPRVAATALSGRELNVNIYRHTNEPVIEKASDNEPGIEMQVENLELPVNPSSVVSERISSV", "assay": "GPCRmax screen, antagonist mode", "assay_type": "cell-based"}, "[3]": {"test_system": "patients with PTSD or MDD", "assay": "Methylone case series, Cohort 2: CGI-S/CGI-I efficacy and safety", "assay_type": "in vivo, human", "experimental": "CGI-S scale was also evaluated in a subset of patients from Cohort 2 post-treatment. Cohort 2 was evaluated for any observed or reported safety events following a single dosing session. Clinical Global Improvement Scale\nClinical Global Impressions (CGI) scale includes 2 components: CGI-S (“severity”) and CGI-I (“improvement”).\nCohort 2 is composed of 28 patients with PTSD or MDD treated in an outpatient setting.\nOnly sessions that included methylone dosing were counted as dosing sessions.\nSingle sessions occurred for 8 of the 28 cases with no booster in two of these cases. In the remainder of the cases, multiple sessions occurred, and booster doses were used in all or some of the remaining patients ([…]) with multiple booster doses used in some or all of the sessions in 15 patients."}, "5HT2A receptor": {"target": "T2, 5HT2A receptor (Homo sapiens, UniProt P28223)", "T2 construct": "beta-galactosidase enzyme fragment (PathHunter complementation tag); host or cells: PathHunter cell lines", "T2 sequence (P28223 whole entry, the tested form may be a part)": "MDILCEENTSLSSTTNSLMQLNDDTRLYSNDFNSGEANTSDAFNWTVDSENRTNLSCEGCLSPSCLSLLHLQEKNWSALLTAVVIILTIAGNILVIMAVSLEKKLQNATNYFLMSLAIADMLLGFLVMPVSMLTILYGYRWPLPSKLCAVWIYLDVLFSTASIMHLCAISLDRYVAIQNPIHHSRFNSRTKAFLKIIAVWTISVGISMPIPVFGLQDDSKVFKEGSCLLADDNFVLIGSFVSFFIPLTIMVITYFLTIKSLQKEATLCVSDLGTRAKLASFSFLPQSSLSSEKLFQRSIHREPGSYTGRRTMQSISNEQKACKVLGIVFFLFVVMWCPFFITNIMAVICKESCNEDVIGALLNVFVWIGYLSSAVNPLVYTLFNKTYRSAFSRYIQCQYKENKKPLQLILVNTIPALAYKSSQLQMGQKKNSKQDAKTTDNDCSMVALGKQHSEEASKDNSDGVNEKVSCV", "assay": "GPCRmax screen, antagonist mode", "assay_type": "cell-based"}, "Male Sprague Dawley rats": {"test_system": "Male Sprague Dawley rats", "assay": "Forced Swim Test (FST)", "assay_type": "in vivo, rat", "description": "The Forced Swim Test (FST) is a classic, and the most used preclinical behavioral assay to screen compounds with antidepressant-like activity and has high predictive and face validity (Porsolt et al. (1977) Nature 266:730; Borsini and Meli (1988) Psychopharmacology 94:147). The premise of the FST is that when rats are placed into a cylinder filled with water, they will initially try to escape, but over time will become immobile. This increased immobility reflects behavioral despair, modeling a depressive-like state.\nForced Swim Test (FST): In the FST trial, rats were placed in a circular plexiglass container filled with water, with no means of escape. Water temperature was maintained at 22-25° C. and changed for every animal. After an acclimation period, rats were timed for inactivity (failure to struggle), activity, swim time and climbing time. Day 1 consisted of a 15 min acclimation trial, and Day 2 (24 h later) consisted of the 5 min test. A time sampling procedure was employed where animals were observed every 5 sec and scored for immobility, swimming, or climbing. Fluoxetine (10 mg/kg, IP, Sigma Aldrich) or 0.9% sterile saline vehicle (vehicle 3× group) were administered 23.5, 5, and 1 h before testing in the FST. […] The experimenter was blinded to treatment.\nForced Swim Test: In the FST trial, rats were placed in a circular plexiglass container filled with water, with no means of escape. Water temperature was maintained at 22-25° C. and changed for every animal. After an acclimation period, rats were timed for inactivity (failure to struggle), activity, swim time and climbing time. Day 1 consisted of a 15 min acclimation trial, and Day 2 (24 h later) consisted of the 5 min test. A time sampling procedure was employed where animals were observed every 5 sec and scored for immobility, swimming, or climbing. Fluoxetine (10 mg/kg, IP, Sigma Aldrich) or 0.9% sterile saline vehicle (vehicle 3× group) were administered 23.5, 5, and 1 h before testing in the FST. 2C-B (2.5, 10, or 20 mg/kg, IP, Cayman Chemical) or 0.9% saline vehicle (vehicle 1× group) were administered 30 min prior to FST testing. The experimenter was blinded to treatment.\nDrug Treatment: Fluoxetine (10 mg/kg, IP, Sigma Aldrich) or 0.9% sterile saline vehicle were administered 23.5, 5, and 1 h before testing in the FST. […] Control animals received fluoxetine alone, methylone alone, or saline vehicle.\nForced Swim Test: In the FST trial, rats were placed in a circular plexiglass container filled with water, with no means of escape. Water temperature was maintained at 22-25° C. and changed for every animal. After an acclimation period, rats were timed for inactivity (failure to struggle), activity, swim time and climbing time. The experimenter and scorer were blind to treatment group. Day 1 consisted of a 15 min acclimation trial, and Day 2 (24 h later) consisted of the 5 min test. A time sampling procedure was employed where animals were observed every 5 sec and scored for immobility, swimming, or climbing.\nControl animals received saline vehicle. The dosing schedule and experimental design are found in FIG. 12A.\nThe FST was performed and scored by an experimenter blind to treatment group according to standard protocols and based on a “modified FST” procedure (Slattery and Cryan (2012) Nat Protoc, 7:1009). Briefly, rats were placed in a circular plexiglass container (29.2 cm diameter, 49.5 cm height) filled with water to a depth of 30 cm so rats could not support themselves by touching the bottom of the tank. Water was maintained at 22-25° C. and was changed for every animal. Day 1 (Training) consisted of a 15 min acclimation trial, and Day 2 (Testing, 24 h later) consisted of the 5 min test. […]"}, "[4]": {"settings": "Cohort 2, N = 28, highest observed"}}, "note": "Marks after values point to notes of the source that are not given here."}
{"smiles": "CNC(C)C(=O)c1ccc2c(c1)OCO2", "note": "(stereo not drawn) [methylone, 3,4-methylenedioxy-N-methylcathinone]", "values": [{"measurement": "discontinuation due to adverse events", "setting": "[1]; 21 patients", "result": "no patients discontinued treatment due to adverse events"}, {"measurement": "total adverse events noted", "setting": "[1]; in three of the 21 patients", "result": "four"}, {"measurement": "patients achieving CGI-I of 1 (very much improved)", "setting": "[1]; of 21 patients", "result": 9, "unit": "patients"}, {"measurement": "patients achieving CGI-I of 2 (much improved)", "setting": "[1]; of 21 patients", "result": 8, "unit": "patients"}, {"measurement": "time to peak brain and serum concentration", "setting": "[2]; rats, intraperitoneal administration", "result": "15 to 30", "unit": "min"}, {"measurement": "half-life shorter than MDMA", "setting": "[2]; relative to MDMA", "result": "> 50", "unit": "%"}, {"measurement": "antagonist activity (% inhibition)", "setting": "5HT2C receptor; 1 or 10 mM, threshold 50%", "result": "no agonist or antagonist activity"}, {"measurement": "activity at 10 µM", "setting": "5HT2C receptor; HTR2C, Antagonist mode, 10 uM", "result": 24.2, "unit": "%"}, {"measurement": "activity at 1 µM", "setting": "5HT2C receptor; HTR2C, Antagonist, 1 uM", "result": 21.1, "unit": "%"}, {"measurement": "Magnitude of Improvement: Number of cases with CGI-I 1", "setting": "[3]; [4]", "result": "11* cases"}, {"measurement": "Magnitude of Improvement: Number of cases with CGI-I 2", "setting": "[3]; [4]", "result": 13, "unit": "cases"}, {"measurement": "Magnitude of Improvement: Number of cases with CGI-I 3", "setting": "[3]; [4]", "result": 4, "unit": "cases"}, {"measurement": "Magnitude of Improvement: Number of cases with CGI-I 4", "setting": "[3]; [4]", "result": 0, "unit": "cases"}, {"measurement": "Magnitude of Improvement: Number of cases with CGI-I 5", "setting": "[3]; [4]", "result": 0, "unit": "cases"}, {"measurement": "Magnitude of Improvement: Number of cases with CGI-I 6", "setting": "[3]; [4]", "result": 0, "unit": "cases"}, {"measurement": "Magnitude of Improvement: Number of cases with CGI-I 7", "setting": "[3]; [4]", "result": 0, "unit": "cases"}, {"measurement": "number of patients with adverse events following methylone dosing", "setting": "[3]; Cohort 2, N = 28, all ≥65 years of age", "result": 3, "unit": "patients"}, {"measurement": "antagonist activity (% inhibition)", "setting": "5HT2A receptor; 1 or 10 mM, threshold 50%", "result": "no agonist or antagonist activity"}, {"measurement": "activity at 10 µM", "setting": "5HT2A receptor; HTR2A, Antagonist mode, 10 uM", "result": -2.7, "unit": "%"}, {"measurement": "activity at 1 µM", "setting": "5HT2A receptor; HTR2A, Antagonist, 1 uM", "result": -7.9, "unit": "%"}, {"measurement": "climbing behavior (FST)", "setting": "Male Sprague Dawley rats; Example 8", "result": "significantly increased climbing behavior"}, {"measurement": "effectiveness in the FST", "setting": "Male Sprague Dawley rats; doses of 10 mg/kg or more", "result": "maximally effective"}, {"measurement": "antidepressant-like effect (FST), multiple lower doses", "setting": "Male Sprague Dawley rats; four […] IP doses 20.5, 8.5, 4.5 and 0.5 hours before testing", "result": "significant antidepressant-like effects"}, {"measurement": "climbing (FST)", "setting": "Male Sprague Dawley rats; methylone IP dose range, 30 min before testing", "result": "only increased at the lowest dose"}, {"measurement": "swimming (FST)", "setting": "Male Sprague Dawley rats; mid and high doses of methylone IP, 30 min before testing", "result": "significantly increased swimming"}, {"measurement": "antidepressant-like effect (FST) vs. vehicle", "setting": "Male Sprague Dawley rats; single dose 15 mg/kg PO, 2 hours before testing", "result": "significant antidepressant-like effect"}, {"measurement": "immobility (FST) vs. saline vehicle", "setting": "Male Sprague Dawley rats; single dose 5, 10, 15, 20 and 30 mg/kg IP, 30 min before testing", "result": "significantly reduced immobility"}]}
